Laboratory results: patent US8258151B2, “3-aminoimidazo [1,2-A] pyridine derivatives as SGLT inhibitors” (Merck Patent GmbH, priority 2006, dated 2012)
pIC50: −log10 of the molar value.

What was measured:
SGLT2 = target: T1, SGLT2 (Homo sapiens, UniProt P31639); assay: SGLT2 activity measurement: 14C-AMG uptake in BHK cells transfected with SGLT2; type: cell-based; settings: AMG 2 mM, 37° C., 90 min
T1 construct: expressed in transfected cells
T1 sequence (P31639 1-672): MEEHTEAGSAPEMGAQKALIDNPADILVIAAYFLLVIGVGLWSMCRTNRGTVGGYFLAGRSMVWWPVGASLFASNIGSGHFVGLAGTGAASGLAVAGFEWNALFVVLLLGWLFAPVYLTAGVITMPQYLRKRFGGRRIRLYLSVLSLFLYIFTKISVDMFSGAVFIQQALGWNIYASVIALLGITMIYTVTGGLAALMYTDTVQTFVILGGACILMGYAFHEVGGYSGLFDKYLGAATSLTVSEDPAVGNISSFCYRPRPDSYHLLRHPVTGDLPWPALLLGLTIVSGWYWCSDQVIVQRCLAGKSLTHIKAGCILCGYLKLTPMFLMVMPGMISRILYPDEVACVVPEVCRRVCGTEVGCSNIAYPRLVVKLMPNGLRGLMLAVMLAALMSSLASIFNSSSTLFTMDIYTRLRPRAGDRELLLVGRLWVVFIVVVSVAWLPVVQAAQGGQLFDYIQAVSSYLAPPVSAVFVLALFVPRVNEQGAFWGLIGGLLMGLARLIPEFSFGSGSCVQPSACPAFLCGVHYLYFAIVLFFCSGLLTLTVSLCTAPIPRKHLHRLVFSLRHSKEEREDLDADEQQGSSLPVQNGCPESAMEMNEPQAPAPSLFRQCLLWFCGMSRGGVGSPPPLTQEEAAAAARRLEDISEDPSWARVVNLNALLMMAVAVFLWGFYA
From the text: (§1) The compounds can be tested on their SGLT inhibition properties by means of BHK cells expressing SGLT1 and SGLT2. The production of the cells and the testing can be carried out as described below.
To construct the SGLT2 expression vector (KL224), the SLC5A2 gene (homologous to NM_003041) was amplified from a cDNA library using standard PCR technology and cloned over NheI/XhoI sites into PCI-neo expression vector (Promega) containing neomycin as a selection marker. In this vector, transcription used the enhancer/promoter of human cytomegalovirus and the SV40 polyadenylation signal.
(§2) The final vector KL224 together with an additional vector containing a dihydrofolate reductase gene as a selection marker was introduced into cells. Transfection into BHK21 cells (ATCC CCL-10), cultivated in DMEM medium (GIBCO/BRL), supplemented with 10% foetal calf serum (FCS) and 20 mM glutamine, was carried out using calcium phosphate transfections according to Graham, F. L. and van der Ebb, A. J. (1973), Virology 52: 456 with 5-20 μg of uncut plasmids for 10^7 cells. Stable transfectants were selected in medium containing 1 mg/ml of G418 (GIBCO/BRL) and 20-5000 nM methotrexate as final concentration, where only cells which expressed the neomycin gene and overexpressed the dhfr gene were able to grow. After growth for 2-3 weeks, the cells were cloned (0.5 cells/well) and the clones were investigated for SGLT expression in the radioactive uptake assay.
Principally, uptake of ^14C-α-methyl-D-glucopyranoside (AMG) in, for example, Xenopus oocytes injected with the corresponding cRNA has been described (for example Wen-Sen Lee et al. (1994), J. Biol. Chem. 269, 12032-12039; Guofeng You et al. (1995), J. Biol. Chem. 270, 29365-29371).
(§3) A 96-well cell-based assay was developed and adapted to HTS requirements:
(§4) BHK cells (transfected with SGLT1 or SGLT2) were seeded into 96-well microtitre plates (Cultureplates, Perkin Elmer). After at least 24 h, medium was removed and the cell layer was washed with assay buffer (140 mM NaCl, 2 mM KCl, 1 mM CaCl2, 1 mM MgCl2, 10 mM HEPES, 5 mM Tris, adjusted with 1 M KOH to pH 7.4). After addition of 40 μl of assay buffer, 50 μl of AMG (50 μM for SGLT1 and 2 mM for SGLT2) in the presence or absence of compounds, the cells were incubated in a total volume of 100 μl at 37° C. for 90 min. Supernatant was removed by suction and discarded. The cells were washed and lysed by addition of 50 μl water. After 10 minutes at room temperature 200 μl Microscint 40 (Perkin Elmer) were added. The radioactivity was counted in a Topcount microplate scintillation counter (Perkin Elmer). The non-specific uptake was determined in sodium-free assay buffer (266 mM sucrose, 2 mM KCl, 1 mM CaCl2, 1 mM MgCl2, 10 mM HEPES, 5 mM Tris, adjusted with 1 M KOH to pH 7.4).

SGLT1 = target: T2, SGLT1 (Homo sapiens, UniProt P13866); assay: SGLT1 activity measurement: 14C-AMG uptake in BHK cells transfected with SGLT1; type: cell-based; settings: AMG 50 μM, 37° C., 90 min
T2 construct: expressed in transfected cells
T2 sequence (P13866 1-664): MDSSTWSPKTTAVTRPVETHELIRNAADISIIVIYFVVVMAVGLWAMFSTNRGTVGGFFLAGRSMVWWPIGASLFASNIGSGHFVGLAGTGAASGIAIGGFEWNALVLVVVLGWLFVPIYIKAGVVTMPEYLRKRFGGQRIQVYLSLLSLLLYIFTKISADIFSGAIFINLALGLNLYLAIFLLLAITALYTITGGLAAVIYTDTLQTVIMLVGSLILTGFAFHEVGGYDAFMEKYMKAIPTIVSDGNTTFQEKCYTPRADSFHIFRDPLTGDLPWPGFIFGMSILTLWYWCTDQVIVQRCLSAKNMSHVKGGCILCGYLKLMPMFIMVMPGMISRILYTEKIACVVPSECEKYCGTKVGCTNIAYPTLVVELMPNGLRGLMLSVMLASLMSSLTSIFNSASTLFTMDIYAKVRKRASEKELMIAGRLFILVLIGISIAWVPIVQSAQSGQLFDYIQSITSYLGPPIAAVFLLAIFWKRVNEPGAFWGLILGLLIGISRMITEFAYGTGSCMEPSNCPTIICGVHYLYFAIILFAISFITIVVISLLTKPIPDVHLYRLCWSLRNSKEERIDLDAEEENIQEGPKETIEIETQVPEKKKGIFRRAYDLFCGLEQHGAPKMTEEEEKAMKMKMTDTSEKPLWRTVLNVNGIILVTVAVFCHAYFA
From the text: as §1
To construct the SGLT1 expression vector (KL225), the SLC5A1 gene (homologous to NM_000343) was amplified from a cDNA library using standard PCR technology and cloned over NheI/XhoI sites into pcDNA3.1 expression vector (Invitrogen) containing neomycin as a selection marker. In this vector, transcription uses the enhancer/promoter of human cytomegalovirus.
as §2, with “KL225” for “KL224”, “assay. […]” for “assay.”
as §3, §4

Row | SMILES | pIC50 (SGLT2) | pIC50 (SGLT1)
1 | Cc1cccc(C)c1Nc1c(-c2c(C)cc(OCC(N)=O)cc2OCC(N)=O)nc2ccc(F)cn12 [Compound A178, 2-[2-(Aminocarbonylmethoxy)-4-(amino-carbonylmethoxy)-6-methylphenyl]-3-(2,6-dimethylphenylamino)-6-fluoroimidazo[1,2-a]-pyridine] | 6.00 to 8.00 | < 5.00
2 | Cc1cccc(C)c1Nc1c(-c2ccc([N+](=O)[O-])cc2OCC(N)=O)nc2ccccn12 [Compound A179, 2-[2-(Aminocarbonylmethoxy)-4-nitrophenyl]-3-(2,6-dimethylphenylamino)imidazo[1,2-a]pyridine] | 6.00 to 8.00 | < 5.00
3 | Cc1cccc(C)c1Nc1c(-c2c(OCC(N)=O)ccc3ccccc23)nc2ccc(F)cn12 [Compound A180, 2-{1-[3-(2,6-Dimethylphenylamino)-6-fluoro-imidazo[1,2-a]pyridin-2-yl]naphthalen-2-yloxy}-acetamide] | 6.00 to 8.00 | 5.00 to 6.00
4 | Cc1cccc(C)c1Nc1c(-c2c(OCC(N)=O)ccc3ccccc23)nc2ccccn12 [Compound A181, 2-{1-[3-(2,6-Dimethylphenylamino)imidazo-[1,2-a]pyridin-2-yl]naphthalen-2-yloxy}acetamide] | 6.00 to 8.00 | 5.00 to 6.00
5 | CCc1cc(OC2CCCCO2)cc(OCC(N)=O)c1-c1nc2ccc(F)cn2c1Nc1c(C)cccc1C (stereo not drawn) [Compound A182, 2-[2-(Aminocarbonylmethoxy)-4-(tetra-hydropyran-2-yloxy)-6-ethylphenyl]-3-(2,6-dimethylphenylamino)-6-fluoroimidazo[1,2-a]-pyridine] | 6.00 to 8.00 | < 5.00
6 | COC(=O)Cc1ccc(OCC(N)=O)c(-c2nc3ccccn3c2Nc2c(C)cccc2C)c1 [Compound A183, 2-[2-(Aminocarbonylmethoxy)-5-(methoxycarbonylmethyl)phenyl]-3-(2,6-dimethylphenylamino)imidazo[1,2-a]pyridine] | 5.00 to 6.00 | < 5.00
7 | COCCOc1cc(C)c(-c2nc3ccc(F)cn3c2Nc2c(C)cccc2C)c(OCC(N)=O)c1 [Compound A184, 2-[2-(Aminocarbonylmethoxy)-4-(2-methoxy-ethoxy)-6-methylphenyl]-3-(2,6-dimethylphenyl-amino)-6-fluoroimidazo[1,2-a]pyridine] | 6.00 to 8.00 | < 5.00
8 | CCc1cc(OC)cc(OCC(N)=O)c1-c1nc2ccc(F)cn2c1Nc1c(C)cccc1C [Compound A185, 2-[2-(Aminocarbonylmethoxy)-4-methoxy-6-ethylphenyl]-3-(2,6-dimethylphenylamino)-6-fluoroimidazo[1,2-a]pyridine] | 6.00 to 8.00 | 5.00 to 6.00
9 | Cc1cccc(C)c1Nc1c(-c2c(C)cc(OCCO)cc2OCC(N)=O)nc2ccc(F)cn12 [Compound A186, 2-[2-(Aminocarbonylmethoxy)-4-(2-hydroxy-ethoxy)-6-methylphenyl]-3-(2,6-dimethylphenyl-amino)-6-fluoroimidazo[1,2-a]pyridine] | 6.00 to 8.00 | < 5.00
10 | CCc1cc(OCCOC)cc(OCC(N)=O)c1-c1nc2ccc(F)cn2c1Nc1c(C)cccc1C [Compound A187, 2-[2-(Aminocarbonylmethoxy)-4-(2-methoxy-ethoxy)-6-ethylphenyl]-3-(2,6-dimethylphenyl-amino)-6-fluoroimidazo[1,2-a]pyridine] | 6.00 to 8.00 | < 5.00
11 | COc1ccc(-c2nc3ccc(F)cn3c2Nc2c(C)cccc2C)c(OCC(N)=O)c1OC [Compound A188, 2-[2-(Aminocarbonylmethoxy)-3,4-dimethoxy-phenyl]-3-(2,6-dimethylphenylamino)-6-fluoro-imidazo[1,2-a]pyridine] | 5.00 to 6.00 | < 5.00
12 | Cc1cccc(C)c1Nc1c(-c2c(C)cc(OC3COC(=O)O3)cc2OCC(N)=O)nc2ccc(F)cn12 (stereo not drawn) [Compound A190, 2-[2-(Aminocarbonylmethoxy)-4-(2-oxo-1,3-dioxolan-4-yloxy)-6-methylphenyl]-3-(2,6-dimethylphenylamino)-6-fluoroimidazo[1,2-a]-pyridine] | 6.00 to 8.00 | < 5.00
13 | COc1cc(C)c(-c2nc3c(N)cccn3c2Nc2c(C)cccc2C)c(OCC(N)=O)c1 [Compound A191, 2-[2-(Aminocarbonylmethoxy)-4-methoxy-6-methylphenyl]-3-(2,6-dimethylphenylamino)-8-aminoimidazo[1,2-a]pyridine] | 6.00 to 8.00 | < 5.00
14 | CCc1cc(OC)cc(OCC(N)=O)c1-c1nc2c(N)cccn2c1Nc1c(C)cccc1C [Compound A192, 2-[2-(Aminocarbonylmethoxy)-4-methoxy-6-ethylphenyl]-3-(2,6-dimethylphenylamino)-8-aminoimidazo[1,2-a]pyridine] | 6.00 to 8.00 | < 5.00
15 | CCc1cc(OC)cc(OCC(N)=O)c1-c1nc2c(O)cccn2c1Nc1c(C)cccc1C [Compound A194, 2-[2-(Aminocarbonylmethoxy)-4-methoxy-6-ethylphenyl]-3-(2,6-dimethylphenylamino)-8-hydroxyimidazo[1,2-a]pyridine] | 5.00 to 6.00 | < 5.00
